Patent publication US20250268873A1, “COMBINATION OF DUAL ATM AND DNA-PK INHIBITORS AND IMMUNOTHERAPEUTIC AGENTS FOR USE IN CANCER THERAPY” (XRAD THERAPEUTICS, INC., priority 2021, published 2025)

Columns and labels:
[1] = system: MC38 tumors; assay: MC38 syngeneic murine tumor model; assay type: in vivo; conditions: for Day 20 regression: p<0.05
Procedure: The murine colon adenocarcinoma cell line, MC38-NCI.TD1 (MC38), was cultured in Dulbecco's modified Eagle's medium (DMEM), 10% fetal bovine serum (FBS), 25 μg/ml gentamicin, 2 mM L-glutamine, 1% penicillin/streptomycin/L-glutamine at 37° C. in 5% CO2. Cells were dissociated in 0.25% trypsin/2.21 mM ethylenediaminetetraacetic acid in Hank's Balanced Salt Solution and brought to a density of 5×10^6 cells/200 μL in DMEM. Tumors were initiated by injection of the cell suspension subcutaneously in the right axilla of female C57BL/6 mice (Jackson Laboratory). All mice were sorted into 7 study groups (n=10) based on caliper estimation of tumor burden. Mice were distributed to ensure that the mean tumor burden for all groups was within 10% of the overall mean tumor burden for the study population (90 mm^3). Mice were monitored daily for clinical signs and weighed and measured three times weekly. The study endpoint was 30 days post staging or when tumor burden was >2000 mm^3.
The vehicle for compound 569 was 0.5% hydroxypropyl methyl cellulose (HPMC) and 0.1% Tween 80 dissolved in deionized water. Vehicle for compound 569 and compound 569 (12 mg/kg) were administered by oral gavage once daily starting the day of staging for two consecutive days (qd×2), in combination with focal radiation. Mice stratified to the radiation therapy groups received 5 Gy per day for two consecutive days (qd×2) 60 minutes following administration of the vehicle or compound 569. The mice were anesthetized with isoflurane during the radiation treatment, which was performed with the Xstrahl Life Sciences Small Animal Radiation Research Platform (Xstrahl, Inc.) Mice were irradiated at an average dose rate of 2.5 Gy/min.
The vehicle for isotype control (clone 2A3) anti-mouse PD-1 (anti-mPD-1; Bio X Cell) and anti-mPD-1 (Clone RMP1-14; Bio X Cell) was phosphate buffered saline (PBS). Isotype control anti-mPD-1 (10 mg/kg) and anti-mPD-1 (10 mg/kg) were administered intraperitonealy twice weekly for 2 weeks starting day 2 post staging. Treatment schedules for the various groups of animals are summarized below: • Group 1 mice received vehicle qd×2+10 mg/kg isotype control (q3d×2, 3 days off)×2; start 2 days post stage. • Group 2 mice received 10 mg/kg anti-mPD-1 (q3d×2, 3 days off)×2; start 2 days post stage. • Group 3 mice received focal irradiation 5 Gy qd×2+10 mg/kg isotype control (q3d×2, 3 days off)×2; start 2 days post stage. • Group 4 mice received focal irradiation 5 Gy qd×2+10 mg/kg anti-mPD-1 (q3d×2, 3 days off)×2; start 2 days post stage. • Group 5 mice received 12 mg/kg Compound 569 qd×2 (1 hr prior to focal irradiation)+5 Gy qd×2 • Group 6 mice received 12 mg/kg Compound 569 qd×2+10 mg/kg anti-mPD-1 (q3d×2, 3 days off)×2; start 2 days post stage. • Group 7 mice received 12 mg/kg Compound 569 qd×2 (1 hr prior to focal irradiation)+5 Gy qd×2+10 mg/kg anti-mPD-1 (q3d×2, 3 days off)×2; start 2 days post stage.
• ΔC and ΔT—Are individual mouse endpoints that are calculated for each mouse as follows:
[formula] • Where Tt and T0 are the tumor burdens of a treated mouse at time t or at the initiation of dosing, respectively. ΔC reflects similar calculations for the control mice. • Median ΔT/ΔC—Is a group endpoint. It is calculated for each day of treatment as:
[formula] • The results are presented as a %. When the median ΔT/ΔC is negative (the median treated tumor burden is regressing), the median ΔT/ΔC is not reported and the Median % Regression is reported instead. • % Regression—Is a group endpoint. It indicates the percentage reduction in the Median tumor volume from baseline. It is calculated as: […]
Day 20 post staging was chosen for ΔT/ΔC since it was the last day all animals were on study prior to euthanasia due to tumor burden. • Complete Regression (CR)—An animal is credited a complete regression if its tumor burden is reduced to an immeasurable volume at any point after the first treatment. […]

[2] = molecular target: hERG channel (Homo sapiens (Human), UniProt Q12809); assay: In-Vitro hERG Inhibition Assay (manual patch clamp); assay type: cell-based; conditions: hERG-T-REx HEK 293 cells
Chain of hERG channel (Q12809 whole entry): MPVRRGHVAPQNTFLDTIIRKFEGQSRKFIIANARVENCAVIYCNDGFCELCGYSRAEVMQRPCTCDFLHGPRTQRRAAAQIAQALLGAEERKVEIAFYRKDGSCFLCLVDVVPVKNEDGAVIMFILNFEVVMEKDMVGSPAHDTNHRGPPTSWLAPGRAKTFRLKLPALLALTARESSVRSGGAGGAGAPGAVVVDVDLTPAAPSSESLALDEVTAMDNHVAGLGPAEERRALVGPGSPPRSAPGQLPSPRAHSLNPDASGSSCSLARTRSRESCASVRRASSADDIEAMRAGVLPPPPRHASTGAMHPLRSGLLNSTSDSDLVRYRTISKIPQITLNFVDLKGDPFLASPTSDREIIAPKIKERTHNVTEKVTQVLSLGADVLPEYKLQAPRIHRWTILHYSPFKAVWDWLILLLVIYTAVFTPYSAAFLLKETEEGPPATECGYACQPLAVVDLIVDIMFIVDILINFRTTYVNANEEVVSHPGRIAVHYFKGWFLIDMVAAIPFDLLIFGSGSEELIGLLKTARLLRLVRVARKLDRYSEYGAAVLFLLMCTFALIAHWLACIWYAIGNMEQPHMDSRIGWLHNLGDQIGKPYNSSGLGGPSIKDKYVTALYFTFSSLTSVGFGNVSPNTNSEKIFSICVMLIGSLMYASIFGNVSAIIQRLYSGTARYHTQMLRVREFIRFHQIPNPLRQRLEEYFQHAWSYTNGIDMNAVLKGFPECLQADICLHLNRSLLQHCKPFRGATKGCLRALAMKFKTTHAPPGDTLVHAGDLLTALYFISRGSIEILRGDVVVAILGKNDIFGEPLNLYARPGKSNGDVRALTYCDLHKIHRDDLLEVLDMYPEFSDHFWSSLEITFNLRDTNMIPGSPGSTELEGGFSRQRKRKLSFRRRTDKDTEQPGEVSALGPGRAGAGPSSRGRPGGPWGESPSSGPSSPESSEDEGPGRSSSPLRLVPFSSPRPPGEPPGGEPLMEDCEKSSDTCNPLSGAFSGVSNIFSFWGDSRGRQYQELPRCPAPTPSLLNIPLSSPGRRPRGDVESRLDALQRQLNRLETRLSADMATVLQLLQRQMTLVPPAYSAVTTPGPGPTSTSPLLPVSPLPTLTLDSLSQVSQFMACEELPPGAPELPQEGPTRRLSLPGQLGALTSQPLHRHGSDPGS
Procedure: The hERG-T-REx™ HEK 293 cells (Invitrogen, K1236) were generated by transfecting the hERG coding sequence in the Tet-regulated expression vector pT-Rex-DEST30 into cells expressing the Tet-repressor (T-Rex™ HEK293), thereby producing cells that can be induced to express high level of hERG channels. The cells were cultured in a medium containing of 85% DMEM, 10% dialyzed FBS, 0.1 mM NEAA, 25 mM HEPES, 100 U/mL Penicillin-Streptomycin, 5 μg/mL Blasticidin, and 400 μg/mL Geneticin. The cells were split using TrypLE™ Express (Gibco, 12604) about three times a week and maintained between ˜40% to ˜80% confluence. Before the assay, the cells were induced with doxycycline (Sigma, D9891) at 1 μg/mL for 48 hours. On the experiment day, the induced cells were resuspended and plated onto the coverslips at 5×10^5 cells/per 6 cm cell culture dish prior to use. The hERG channel-mediated current was acquired by manual patch clamp recording systems equipped with amplifiers (HEKA, EPC10 and Molecular Devices, multiclamp 700B) and the inverted phase contrast microscope (Olympus, IX51/71/73). Glass pipettes were prepared by micropipette puller (Sutter, P97 and Narishige, PC-10) and qualified by the pipette resistance in the range of 2-4 MOhms. […] The whole-cell configuration was maintained with access resistance continuously monitored (<15 MOhms). […]

[3] = Group 5: compound 569 12 mg/kg qd×2 + radiation 5 Gy qd×2
[4] = Group 7: compound 569 + radiation + anti-mPD-1

`CC(C)NCCOc1ncc(-c2cc3c4c(cnc3cc2F)N(C)C(=O)C42CCC2)cc1NS(C)(=O)=O` [Compound 569, N-(5-(7′-Fluoro-3′-methyl-2′-oxo-2′,3′-dihydrospiro[cyclobutane-1,1′-pyrrolo[2,3-c]quinolin]-8′-yl)-2-(2-(isopropylamino)ethoxy)pyridin-3-yl)methanesulfonamide] was tested, and the “incidence of complete regressions (CR)” value [1, 3] was 50%, the “incidence of tumor free survivors (TFS)” value [1, 3] was 30% and the “Day 20 regression” value [1, 3] was 22%. For the same molecule, the “Day 20 median ΔT/ΔC” value ([1]; Group 6: compound 569 12 mg/kg po qd×2 + anti-mPD-1 10 mg/kg ip, p>0.05) was 64%, the incidence of death ([1]; Group 6: compound 569 12 mg/kg qd×2 + anti-mPD-1 10 mg/kg, 1 death, n=10) was 10% and the “Day 20 regression” value ([1]; Group 7: compound 569 12 mg/kg qd×2 + radiation 5 Gy qd×2 + anti-mPD-1 10 mg/kg) was 99%. For the same molecule, the “incidence of complete regressions (CR)” value [1, 4] was 90%, the “incidence of tumor free survivors (TFS)” value [1, 4] was 90% and the IC50 [2] was greater than 30 µM.
